Here are results for two compounds from patent US10137115B2, “Therapeutic inhibitor for EBV-associated tumor with tailor responsive optical imaging” (priority 2016, dated 2018).

Data set [1] is described as follows: Emission quantum yield in water, comparative method using rhodamine 6G. Type of data set: physicochemical. Particulars: λex=480 nm, without WT-EBNA1. The procedure:
Quantum yields of L2Pn are evaluated by the following equation 1: […]
Where the subscripts r and s denote reference and sample respectively, ϕ is the quantum yield, G is the slope from the plot integrated emission intensity vs absorbance, and η is the refractive index of the solvent. The correction curve is obtained by comparing the experimentally recorded spectrum of the standard rhodamine 6G with the published data.

Data set [2] has as its target T1, WT-EBNA1 (Epstein-Barr virus, UniProt P03211). The data set can be described thus: biochemical. On the set-up: Wild type EBNA1 protein (379-641 a.a.) fusing with glutathione S-transferase is expressed in Escherichia coli; GST (glutathione S-transferase); made in house; host or cells: Escherichia coli (BL21). Particulars: for emission intensity increase on addition of WT-EBNA1: 4 μM WT-EBNA1, PBS buffer. Type of data set: binding. The procedure:
Bind constant via luminescence titration: Luminescence titration analysis is conducted with gradually addition of WT EBNA1 to evaluate the binding constants between the three peptide conjugates and WT EBNA1. […] The binding constants for Ka are obtained from the double logarithm regression curve: lg[(I−I0)/I0]=lg Ka+n lg[G] equation 2
Where I and I0 are current and initial fluorescence, respectively, Ka is the binding constant, n is the number of binding sites per WT EBNA1, and [G] is total concentration of WT EBNA1.
Protein samples preparation. Five protein samples are used.

Data set [3] deals with EBV-positive (C666-1 and NPC43) and EBV-negative (CNE2 and HeLa) cell lines. The data set can be described thus: In vitro confocal imaging and co-staining. Particulars: 10 μM, 6 h. Type of data set: cell-based, human.
Method: HeLa is EBV-negative human cervical carcinoma cells, CNE2 is EBV-negative nasopharyngeal carcinoma cells, C666-1 is EBV-positive nasopharyngeal carcinoma cells, and NPC 43 is the newly derived EBV-positive nasopharyngeal carcinoma cells.
The cells are incubated with 6 hours before monitoring imaging.
The target of data set [4] is T1, WT-EBNA1. The data set is described as follows: Emission quantum yield in the presence of WT-EBNA1. The following applies: in water, saturated WT-EBNA1, λex=480 nm.

Entries after “also recorded” stand apart in the source; their conditions may differ. Non-standard residues stand in square brackets, D forms with d. Residues, ends and D or L forms follow the SMILES beside them. No end group written: not given here. *: point of attachment. X1 = CCN(CC)c1ccc(/C=C/c2cc[n+](CC(=O)*)cc2)cc1; Ahx = NCCCCCC(=O)O

T1 sequence (P03211 379-641): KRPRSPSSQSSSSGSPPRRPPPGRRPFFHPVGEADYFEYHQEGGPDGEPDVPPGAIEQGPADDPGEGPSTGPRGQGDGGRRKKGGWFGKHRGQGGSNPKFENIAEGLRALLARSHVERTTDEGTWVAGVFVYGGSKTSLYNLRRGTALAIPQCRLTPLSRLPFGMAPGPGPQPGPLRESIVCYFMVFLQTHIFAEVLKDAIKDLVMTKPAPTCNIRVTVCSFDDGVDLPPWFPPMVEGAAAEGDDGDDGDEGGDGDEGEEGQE

In data set [1], `CCN(CC)c1ccc(/C=C/c2cc[n+](CC(=O)N[C@@H](CS)C(=O)NCCCCCC(=O)N[C@@H](CCCNC(=N)N)C(=O)N[C@H](CCCNC(=N)N)C(=O)N[C@@H](CCCNC(=N)N)C(=O)N[C@@H](CCCCN)C(=O)NCC(=O)NCC(=O)N[C@@H](Cc3ccc(O)cc3)C(=O)N[C@@H](Cc3ccccc3)C(=O)N[C@@H](CCSC)C(=O)N[C@H](C(=O)N[C@@H](Cc3ccccc3)C(N)=O)C(C)C)cc2)cc1` [L2P3] (X1-C[Ahx]R[dR]RKGGYFMVF-NH2) yielded an emission quantum yield of 4.3%. On WT-EBNA1 [2], the Kd was 3.16 µM and the “emission intensity increase on addition of WT-EBNA1” value was found to be 4.7 fold. Moreover, the “selectivity towards WT-EBNA1 (emission enhancement vs other proteins, ions)” value at WT-EBNA1 [2] (2 μM in PBS buffer, vs BSA, mutant EBNA1, ZnCl2, NaHCO3, CuCl2, citrates) is recorded as “selective towards WT-EBNA1”. Also, in data set [3], the “subcellular localization in EBV-positive cells” value was “can goes into C666-1 cell nucleus; also recorded: nuclear localization”. For the same compound, at WT-EBNA1 [4], the “emission quantum yield + WT EBNA1” value turned out to be 13.0%.

On to “L2P2: peptide conjugate of L2 (4-(4-(Diethylamino)styryl)-N-carboxymethylpyridinium chloride) and peptide P2 YFMVF (also: conjugated to L2, site not given here)”, for which the emission quantum yield in data set [1] came out at 4.4%. For the same compound, the “emission intensity increase on addition of WT-EBNA1” value with WT-EBNA1 [2] is reported as “no intensity change; also recorded: did not show any enhancements”. Further, in data set [3], the “subcellular localization in EBV-positive cells” value is “cytoplasm location only; also recorded: only found in the cytoplasm”. The “emission quantum yield + WT EBNA1” value in the data set with WT-EBNA1 [4] amounted to 3.8%.
